Patent US8987195B2 (priority 2012, dated 2015)
pEC50, pIC50: −log10 of the molar value. Like-named read-outs stand apart in the source and are kept apart here.

Experiments:
[1] = molecular target: HCV NS3/4A protease genotype 1b (Hepatitis C virus genotype 1b, UniProt P26663); assay: HCV NS3/4A protease time-resolved fluorescence (TRF) assay, Ki against genotype 1b; type: biochemical; details: IC50 [gt-1b], NS3/4A protease TRF assay, genotype 1b enzyme 0.2 nM
Method in brief: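 Enzyme 0.2 nM 1b / 0.4 nM A156T / 0.025 nM 3a; 30 min preinc. w/ cpd; 25 nM TRF peptide; 2.5 h RT; ex 340/em 615 time-delayed; 4-param IC50 → Ki = IC50/(1+[S]/KM).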

HCV genotype 1b replicon = assay: HCV replicon assay, genotype 1b replicon EC50; type: cell-based, Hepatitis C virus; details: Hepatitis C virus, HCV replicon, genotype 1b, read-out: EC50 [gt-1b]
Method in brief: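 Cells harbouring a stable replicon are grown under G418 selection, then plated with test compound in G418-free medium for 24-48 hours. After washing and lysis, RNA or luciferase signal is measured and expressed as percent of DMSO control to give EC50.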

Row | Structure (SMILES) | pIC50 [1] | pEC50 (HCV genotype 1b replicon) | pIC50 ([1]; K+ salt) | pEC50 (HCV genotype 1b replicon; K+ salt)
1 | CCc1nc2ccc(OC)cc2c2c1O[C@]1(CC2)C[C@H]2C(=O)N[C@]3(C(=O)NS(=O)(=O)C4(C)CC4)C[C@H]3/C=C\CCCCC[C@H](NC(=O)c3c(C)n[nH]c3C)C(=O)N2C1 [Example 485, (2R,6S,12Z,13aS,14aR,16aS)-6-{[(3,5-dimethyl-1H-pyrazol-4-yl)carbonyl]amino}-5′-ethyl-9′-methoxy-N-[(1-methylcyclopropyl)sulfonyl]-5,16-dioxo-1,1′,2′,6,7,8,9,10,11,13a,14,15,16,16a-tetradecahydrospiro[cyclopropa[e]pyrrolo[1,2-a][1,4]diazacyclopentadecine-2,3′-pyrano[2,3-c]quinoline]-14a(5H)-carboxamide] | 11.30 | 9.51 |  | 
2 | CCc1nc2ccc(OC)cc2c2c1O[C@]1(CC2)C[C@H]2C(=O)N[C@]3(C(=O)NS(=O)(=O)C4(C)CC4)C[C@H]3/C=C\CCCCC[C@H](NC(=O)O[C@@H](C)C3CC3)C(=O)N2C1 [Example 486, (1S)-1-cyclopropylethyl [(2R,6S,12Z,13aS,14aR,16aS)-5′-ethyl-9′-methoxy-14a-{[(1-methylcyclopropyl)sulfonyl]carbamoyl}-5,16-dioxo-1,1′,2′,5,6,7,8,9,10,11,13a,14,14a,15,16,16a-hexadecahydrospiro[cyclopropa[e]pyrrolo[1,2-a][1,4]diazacyclopentadecine-2,3′-pyrano[2,3-c]quinolin]-6-yl]carbamate] | 11.00 | 7.82 |  | 
3 | CCc1nc2ccc(OCCCOC)cc2c2c1O[C@]1(CC2)C[C@H]2C(=O)N[C@]3(C(=O)NS(=O)(=O)C4(C)CC4)C[C@H]3/C=C\CCCCC[C@H](NC(=O)O[C@@H](C)C(C)C)C(=O)N2C1 [Example 487, (2S)-3-methylbutan-2-yl [(2R,6S,12Z,13aS,14aR,16aS)-5′-ethyl-9′-(3-methoxypropoxy)-14a-{[(1-methylcyclopropyl)sulfonyl]carbamoyl}-5,16-dioxo-1,1′,2′,5,6,7,8,9,10,11,13a,14,14a,15,16,16a-hexadecahydrospiro[cyclopropa[e]pyrrolo[1,2-a][1,4]diazacyclopentadecine-2,3′-pyrano[2,3-c]quinolin]-6-yl]carbamate] |  |  | 11.30 | 9.47
4 | COc1ccc2nc(C(F)(F)F)c3c(c2c1)[C@](C)(O)C[C@]1(C[C@H]2C(=O)N[C@]4(C(=O)NS(=O)(=O)C5(C)CC5)C[C@H]4/C=C\CCCCC[C@H](NC(=O)OC(C)(C)C)C(=O)N2C1)O3 [Example 489, tert-butyl [(1′R,2S,6S,12Z,13aS,14aR,16aS)-1′-hydroxy-9′-methoxy-1′-methyl-14a-{[(1-methylcyclopropyl)sulfonyl]carbamoyl}-5,16-dioxo-5′-(trifluoromethyl)-1,1′,2′,5,6,7,8,9,10,11,13a,14,14a,15,16,16a-hexadecahydrospiro[cyclopropa[e]pyrrolo[1,2-a][1,4]diazacyclopentadecine-2,3′-pyrano[2,3-c]quinolin]-6-yl]carbamate] | 10.80 | 8.37 |  | 
5 | CCc1nc2ccc(OC)cc2c2c1O[C@]1(CC2)C[C@H]2C(=O)N[C@]3(C(=O)NS(=O)(=O)C4(C)CC4)C[C@H]3/C=C\CCCCC[C@H](NC(=O)c3sccc3F)C(=O)N2C1 [Example 490, (2R,6S,12Z,13aS,14aR,16aS)-5′-ethyl-6-{[(3-fluorothiophen-2-yl)carbonyl]amino}-9′-methoxy-N-[(1-methylcyclopropyl)sulfonyl]-5,16-dioxo-1,1′,2′,6,7,8,9,10,11,13a,14,15,16,16a-tetradecahydrospiro[cyclopropa[e]pyrrolo[1,2-a][1,4]diazacyclopentadecine-2,3′-pyrano[2,3-c]quinoline]-14a(5H)-carboxamide] | 10.77 | 9.33 |  | 
6 | CC(C)COC(=O)N[C@H]1CCCCC/C=C\[C@@H]2C[C@@]2(C(=O)NS(=O)(=O)C2(C)CC2)NC(=O)[C@@H]2C[C@]3(CCc4c(c(C(F)(F)F)nc5ccc(OCF)cc45)O3)CN2C1=O [Example 491, 2-methylpropyl [(2R,6S,12Z,13aS,14aR,16aS)-9′-(fluoromethoxy)-14a-{[(1-methylcyclopropyl)sulfonyl]carbamoyl}-5,16-dioxo-5′-(trifluoromethyl)-1,1′,2′,5,6,7,8,9,10,11,13a,14,14a,15,16,16a-hexadecahydrospiro[cyclopropa[e]pyrrolo[1,2-a][1,4]diazacyclopentadecine-2,3′-pyrano[2,3-c]quinolin]-6-yl]carbamate] |  |  | 11.52 | 8.60
7 | CC(C)(C)OC(=O)N[C@H]1CCCCC/C=C\[C@@H]2C[C@@]2(C(=O)NS(=O)(=O)C2(C)CC2)NC(=O)[C@@H]2C[C@]3(CCc4c(c(C(F)(F)F)nc5ccc(OCCO[Si](C)(C)C(C)(C)C)cc45)O3)CN2C1=O [Example 492, tert-butyl [(2R,6S,12Z,13aS,14aR,16aS)-9′-(2-{[tert-butyl(dimethyl)silyl]oxy}ethoxy)-14a-{[(1-methylcyclopropyl)sulfonyl]carbamoyl}-5,16-dioxo-5′-(trifluoromethyl)-1,1′,2′,5,6,7,8,9,10,11,13a,14,14a,15,16,16a-hexadecahydrospiro[cyclopropa[e]pyrrolo[1,2-a][1,4]diazacyclopentadecine-2,3′-pyrano[2,3-c]quinolin]-6-yl]carbamate] | 10.36 | 8.86 |  | 
8 | COc1ccc2nc(C(F)F)c3c(c2c1)CC[C@]1(C[C@H]2C(=O)N[C@]4(C(=O)NS(=O)(=O)C5(C)CC5)C[C@H]4/C=C\CCCCC[C@H](NC(=O)OC4(C)CCC4)C(=O)N2C1)O3 [Example 493, 1-methylcyclobutyl [(2R,6S,12Z,13aS,14aR,16aS)-5′-(difluoromethyl)-9′-methoxy-14a-{[(1-methylcyclopropyl)sulfonyl]carbamoyl}-5,16-dioxo-1,1′,2′,5,6,7,8,9,10,11,13a,14,14a,15,16,16a-hexadecahydrospiro[cyclopropa[e]pyrrolo[1,2-a][1,4]diazacyclopentadecine-2,3′-pyrano[2,3-c]quinolin]-6-yl]carbamate] |  |  | 11.52 | 9.55
9 | COCC1(S(=O)(=O)NC(=O)[C@@]23C[C@H]2/C=C\CCCCC[C@H](NC(=O)OCC2(C)CC2)C(=O)N2C[C@@]4(CCc5c(c(C(F)(F)F)nc6ccc(OC)cc56)O4)C[C@H]2C(=O)N3)CC1 [Example 494, (1-methylcyclopropyl)methyl [(2R,6S,12Z,13aS,14aR,16aS)-9′-methoxy-14a-({[1-(methoxymethyl)cyclopropyl]sulfonyl}carbamoyl)-5,16-dioxo-5′-(trifluoromethyl)-1,1′,2′,5,6,7,8,9,10,11,13a,14,14a,15,16,16a-hexadecahydrospiro[cyclopropa[e]pyrrolo[1,2-a][1,4]diazacyclopentadecine-2,3′-pyrano[2,3-c]quinolin]-6-yl]carbamate] | 10.74 | 8.76 |  | 
10 | COCC1(S(=O)(=O)NC(=O)[C@@]23C[C@H]2/C=C\CCCCC[C@H](NC(=O)OC2(C)CCC2)C(=O)N2C[C@@]4(CCc5c(c(C(F)(F)F)nc6ccc(OC)cc56)O4)C[C@H]2C(=O)N3)CC1 [Example 495, 1-methylcyclobutyl [(2R,6S,12Z,13aS,14aR,16aS)-9′-methoxy-14a-({[1-(methoxymethyl)cyclopropyl]sulfonyl}carbamoyl)-5,16-dioxo-5′-(trifluoromethyl)-1,1′,2′,5,6,7,8,9,10,11,13a,14,14a,15,16,16a-hexadecahydrospiro[cyclopropa[e]pyrrolo[1,2-a][1,4]diazacyclopentadecine-2,3′-pyrano[2,3-c]quinolin]-6-yl]carbamate] | 11.15 | 8.84 |  | 
11 | COCC1(S(=O)(=O)NC(=O)[C@@]23C[C@H]2/C=C\CCCCC[C@H](NC(=O)OCC(C)(C)C)C(=O)N2C[C@@]4(CCc5c(c(C(F)(F)F)nc6ccc(OC)cc56)O4)C[C@H]2C(=O)N3)CC1 [Example 496, 2,2-dimethylpropyl [(2R,65,12Z,13aS,14aR,16aS)-9′-methoxy-14a-({[1-(methoxymethyl)cyclopropyl]sulfonyl}carbamoyl)-5,16-dioxo-5′-(trifluoromethyl)-1,1′,2′,5,6,7,8,9,10,11,13a,14,14a,15,16,16a-hexadecahydrospiro[cyclopropa[e]pyrrolo[1,2-a][1,4]diazacyclopentadecine-2,3′-pyrano[2,3-c]quinolin]-6-yl]carbamate] | 10.57 | 8.16 |  | 
12 | COCC1(S(=O)(=O)NC(=O)[C@@]23C[C@H]2/C=C\CCCCC[C@H](NC(=O)OCC(F)F)C(=O)N2C[C@@]4(CCc5c(c(C(F)(F)F)nc6ccc(OC)cc56)O4)C[C@H]2C(=O)N3)CC1 [Example 497, 2,2-difluoroethyl [(2R,6S,12Z,13aS,14aR,16aS)-9′-methoxy-14a-({[1-(methoxymethyl)cyclopropyl]sulfonyl}carbamoyl)-5,16-dioxo-5′-(trifluoromethyl)-1,1′,2′,5,6,7,8,9,10,11,13a,14,14a,15,16,16a-hexadecahydrospiro[cyclopropa[e]pyrrolo[1,2-a][1,4]diazacyclopentadecine-2,3′-pyrano[2,3-c]quinolin]-6-yl]carbamate] | 10.85 | 8.71 |  | 
